{"source": "PubChem BioAssay AID1963867", "about": "(Molecular Pharmacology Branch, DTP, NCI, 2024);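 also: spheroids exposed to agents for seven days before reading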;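 as to viability, T/C: 100% = DMSO vehicle wells so lower means fewer viable cells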", "test_system": "KRAS-mutant PDC tumor spheroid with HUVEC/MSC, viability", "assay": "Anticancer human tumor 327498-153-R-J2-PDC patient-derived uterine carcinosarcoma cell line growth inhibition [KRAS2]", "settings": "for IC50: curve of first compound; for viability, T/C: stronger effect = lower value", "how_it_was_run": "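Combination screen of spheroid viability in tumor-cell co-cultures with endothelial (HUVEC) and mesenchymal stem cell stroma. Each agent was tested in half-log dilutions, topping at clinical Cmax or at 10 microM without a known Cmax.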", "data": [{"smiles": "CCNC(=O)CC1N=C(c2ccc(Cl)cc2)c2cc(OC)ccc2-n2c(C)nnc21", "note": "(stereo not given) + COc1cc2nc(C)nc(NC(C)c3cc(N)cc(C(F)(F)F)c3)c2cc1OC1CCOC1", "values": [{"measurement": "IC50", "setting": "second compound 0.1 µM", "result": 459, "unit": "nM"}, {"measurement": "IC50", "setting": "second compound 0.316 µM", "result": 420, "unit": "nM"}, {"measurement": "IC50", "setting": "second compound 1 µM", "result": 352, "unit": "nM"}, {"measurement": "IC50", "setting": "second compound 3.16 µM", "result": 189, "unit": "nM"}, {"measurement": "IC50", "setting": "second compound 10 µM", "result": 172, "unit": "nM"}, {"measurement": "viability, T/C", "setting": "second compound 0.1 µM, first compound 0.0316 µM", "result": 84.7, "unit": "%"}, {"measurement": "viability, T/C", "setting": "second compound 0.1 µM, first compound 0.1 µM", "result": 81.5, "unit": "%"}, {"measurement": "viability, T/C", "setting": "second compound 0.1 µM, first compound 0.316 µM", "result": 59.2, "unit": "%"}, {"measurement": "viability, T/C", "setting": "second compound 0.1 µM, first compound 1 µM", "result": 30.5, "unit": "%"}, {"measurement": "viability, T/C", "setting": "second compound 0.1 µM, first compound 3.16 µM", "result": 21.1, "unit": "%"}, {"measurement": "viability, T/C", "setting": "second compound 0.1 µM, first compound 10 µM", "result": 20.4, "unit": "%"}, {"measurement": "viability, T/C", "setting": "second compound 0.316 µM, first compound 0.0316 µM", "result": 74, "unit": "%"}, {"measurement": "viability, T/C", "setting": "second compound 0.316 µM, first compound 0.1 µM", "result": 69.1, "unit": "%"}, {"measurement": "viability, T/C", "setting": "second compound 0.316 µM, first compound 0.316 µM", "result": 57.6, "unit": "%"}, {"measurement": "viability, T/C", "setting": "second compound 0.316 µM, first compound 1 µM", "result": 27.5, "unit": "%"}, {"measurement": "viability, T/C", "setting": "second compound 0.316 µM, first compound 3.16 µM", "result": 23.2, "unit": "%"}, {"measurement": "viability, T/C", "setting": "second compound 0.316 µM, first compound 10 µM", "result": 24.2, "unit": "%"}, {"measurement": "viability, T/C", "setting": "second compound 1 µM, first compound 0.0316 µM", "result": 75.6, "unit": "%"}, {"measurement": "viability, T/C", "setting": "second compound 1 µM, first compound 0.1 µM", "result": 75.2, "unit": "%"}, {"measurement": "viability, T/C", "setting": "second compound 1 µM, first compound 0.316 µM", "result": 52.7, "unit": "%"}, {"measurement": "viability, T/C", "setting": "second compound 1 µM, first compound 1 µM", "result": 22.6, "unit": "%"}, {"measurement": "viability, T/C", "setting": "second compound 1 µM, first compound 3.16 µM", "result": 20.4, "unit": "%"}, {"measurement": "viability, T/C", "setting": "second compound 1 µM, first compound 10 µM", "result": 18.2, "unit": "%"}, {"measurement": "viability, T/C", "setting": "second compound 3.16 µM, first compound 0.0316 µM", "result": 75, "unit": "%"}, {"measurement": "viability, T/C", "setting": "second compound 3.16 µM, first compound 0.1 µM", "result": 56, "unit": "%"}, {"measurement": "viability, T/C", "setting": "second compound 3.16 µM, first compound 0.316 µM", "result": 47.2, "unit": "%"}, {"measurement": "viability, T/C", "setting": "second compound 3.16 µM, first compound 1 µM", "result": 26.5, "unit": "%"}, {"measurement": "viability, T/C", "setting": "second compound 3.16 µM, first compound 3.16 µM", "result": 20.6, "unit": "%"}, {"measurement": "viability, T/C", "setting": "second compound 3.16 µM, first compound 10 µM", "result": 21.7, "unit": "%"}, {"measurement": "viability, T/C", "setting": "second compound 10 µM, first compound 0.0316 µM", "result": 63.7, "unit": "%"}, {"measurement": "viability, T/C", "setting": "second compound 10 µM, first compound 0.1 µM", "result": 52.7, "unit": "%"}, {"measurement": "viability, T/C", "setting": "second compound 10 µM, first compound 0.316 µM", "result": 46.4, "unit": "%"}, {"measurement": "viability, T/C", "setting": "second compound 10 µM, first compound 1 µM", "result": 23.6, "unit": "%"}, {"measurement": "viability, T/C", "setting": "second compound 10 µM, first compound 3.16 µM", "result": 19.5, "unit": "%"}, {"measurement": "viability, T/C", "setting": "second compound 10 µM, first compound 10 µM", "result": 13.9, "unit": "%"}]}]}
